In patent US20230265151A1, “GIP/GLP1 CO-AGONIST COMPOUNDS” (priority 2020, published 2023):
Like-named read-outs stand apart in the source and are kept apart here.

How the values were obtained:
Format in all cases: cell-based
hGIPR = molecular target: T1, hGIPR (Homo sapiens, UniProt P48546); experiment: Functional cAMP formation (HTRF) in HEK-293 clonal cells expressing hGIPR, 0.1% bovine casein, without or with 1.0% human serum albumin; settings: for Emax: percent of maximal response to GIP(1-42)NH2, read-out: hGIPR Emax, % ± SEM; for EC50: cAMP, 0.1% bovine casein (no human serum albumin), geometric mean
T1 construct: expressed in transfected cells
T1 sequence (P48546 22-466): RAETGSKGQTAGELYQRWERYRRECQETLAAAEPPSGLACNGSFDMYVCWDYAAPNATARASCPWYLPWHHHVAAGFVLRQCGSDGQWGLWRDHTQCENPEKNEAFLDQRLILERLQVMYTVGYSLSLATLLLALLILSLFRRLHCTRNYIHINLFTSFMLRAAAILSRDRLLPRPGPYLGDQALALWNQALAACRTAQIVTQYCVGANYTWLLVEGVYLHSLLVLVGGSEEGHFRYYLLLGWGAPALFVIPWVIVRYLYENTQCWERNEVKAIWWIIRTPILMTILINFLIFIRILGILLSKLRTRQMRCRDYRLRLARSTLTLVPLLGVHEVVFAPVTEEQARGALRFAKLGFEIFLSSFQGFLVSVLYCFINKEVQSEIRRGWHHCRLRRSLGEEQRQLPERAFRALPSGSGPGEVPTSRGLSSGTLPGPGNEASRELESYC
Procedure, shortened: (§1)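 Cells were stimulated with peptide for 30 min at 37° C, then intracellular cAMP was measured by competitive HTRF (665/620 nm ratio) and converted to nM using a cAMP standard curve. Relative EC50 and Emax came from four-parameter logistic fits of percent maximal response against peptide concentration.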

hGCGR = molecular target: T2, hGCGR (Homo sapiens, UniProt P47871); experiment: Functional cAMP formation (HTRF) in HEK-293 clonal cells expressing hGCGR, 0.1% bovine casein, without or with 1.0% human serum albumin
T2 construct: expressed in transfected cells
Procedure, shortened: as §1

hGLP-1R = hGLP-1R (Homo sapiens, UniProt P43220); experiment: Functional cAMP formation (HTRF) in HEK-293 clonal cells expressing hGLP-1R, 0.1% bovine casein, without or with 1.0% human serum albumin; set-up: expressed in transfected cells; settings: for EC50: geometric mean, read-out: hGLP-1R EC50, nM (SEM, n)
Procedure, shortened: as §1

[1] = HEK293, 0.1% bovine casein and 1.0% human serum albumin, 37° C.
[2] = 0.1% bovine casein and 1.0% human serum albumin, 37° C., geometric mean, read-out: hGCGR EC50, nM (SEM, n)
[3] = 0.1% bovine casein and 1.0% human serum albumin, 37° C.
[4] = HEK293, 0.1% bovine casein and 1.0% human serum albumin, 37° C., percent of maximal response to GLP-1(7-36)NH2, read-out: hGLP-1R Emax, % ± SEM
[5] = 37° C., read-out: hGIPR EC50, nM (SEM, n)
[6] = cAMP, 37° C., 0.1% bovine casein (no human serum albumin), geometric mean, read-out: hGCGR EC50, nM (SEM, n)

T2 sequence (P47871 26-477): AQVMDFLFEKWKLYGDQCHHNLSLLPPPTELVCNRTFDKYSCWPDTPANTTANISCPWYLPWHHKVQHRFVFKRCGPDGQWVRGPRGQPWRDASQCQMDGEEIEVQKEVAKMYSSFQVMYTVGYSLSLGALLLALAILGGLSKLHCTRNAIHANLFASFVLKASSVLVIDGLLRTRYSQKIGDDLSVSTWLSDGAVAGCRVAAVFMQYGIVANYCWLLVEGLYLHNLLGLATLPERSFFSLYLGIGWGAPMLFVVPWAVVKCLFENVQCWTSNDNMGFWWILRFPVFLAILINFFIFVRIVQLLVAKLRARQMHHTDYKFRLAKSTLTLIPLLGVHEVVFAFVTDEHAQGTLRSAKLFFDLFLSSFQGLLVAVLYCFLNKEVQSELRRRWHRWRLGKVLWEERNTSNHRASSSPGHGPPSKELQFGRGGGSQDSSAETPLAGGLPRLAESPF
hGLP-1R, sequence (P43220 24-463): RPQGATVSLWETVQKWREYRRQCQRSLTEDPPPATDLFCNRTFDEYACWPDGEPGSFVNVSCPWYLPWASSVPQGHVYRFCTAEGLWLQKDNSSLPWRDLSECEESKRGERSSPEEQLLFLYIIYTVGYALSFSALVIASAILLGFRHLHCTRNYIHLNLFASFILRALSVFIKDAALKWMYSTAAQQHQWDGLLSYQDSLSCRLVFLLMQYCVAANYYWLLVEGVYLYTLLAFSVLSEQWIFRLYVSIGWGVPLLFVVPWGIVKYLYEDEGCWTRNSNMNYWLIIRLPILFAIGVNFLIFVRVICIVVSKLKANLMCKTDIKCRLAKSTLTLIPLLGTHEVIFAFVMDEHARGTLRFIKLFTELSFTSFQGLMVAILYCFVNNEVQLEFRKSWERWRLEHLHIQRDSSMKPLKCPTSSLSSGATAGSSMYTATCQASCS

**Q.** For `CC[C@H](C)[C@H](NC(=O)[C@H](CCCN)NC(=O)[C@H](CC(=O)O)NC(=O)[C@H](CC(C)C)NC(=O)[C@](C)(CC(C)C)NC(=O)[C@@H](NC(=O)[C@H](CO)NC(=O)[C@H](Cc1ccncc1)NC(=O)[C@H](CC(=O)O)NC(=O)[C@H](CO)NC(=O)[C@@H](NC(=O)[C@](C)(Cc1ccccc1F)NC(=O)[C@@H](NC(=O)CNC(=O)[C@H](CCC(=O)O)NC(=O)C(C)(C)NC(=O)[C@@H](N)Cc1ccc(O)cc1)[C@@H](C)O)[C@@H](C)O)[C@@H](C)CC)C(=O)N[C@@H](C)C(=O)N[C@@H](CCC(N)=O)C(=O)NC(C)(C)C(=O)N[C@@H](CCC(=O)O)C(=O)N[C@@H](Cc1ccccc1)C(=O)N[C@H](C(=O)N[C@@H](CCCCNC(=O)COCCOCCNC(=O)COCCOCCNC(=O)CC[C@H](NC(=O)CCCc1ccc(C(C)(C)C)cc1)C(=O)O)C(=O)N[C@@](C)(Cc1ccc(O)cc1)C(=O)N[C@@H](CC(C)C)C(=O)N[C@H](C(=O)N[C@@H](CCCCNC(=O)COCCOCCNC(=O)COCCOCCNC(=O)CC[C@H](NC(=O)CCCc1ccc(C(C)(C)C)cc1)C(=O)O)C(=O)NCC(=O)NCC(=O)N1CCC[C@H]1C(=O)N[C@@H](CO)C(=O)N[C@@H](CO)C(=O)NCC(=O)N[C@@H](C)C(=O)N1CCC[C@H]1C(=O)N1CCC[C@H]1C(=O)N1CCC[C@H]1C(=O)N[C@@H](CO)C(N)=O)[C@@H](C)CC)[C@@H](C)CC` [Example 203], which Emax (hGIPR; [1]) is on record?
**A.** Its Emax is 87.2%.

**Q.** And the EC50 (hGCGR; [2])?
**A.** Its EC50 is greater than 9950 nM.

**Q.** And the EC50 (hGCGR; cAMP, incubated at 37° C., 0.1% bovine casein (no human serum albumin), geometric mean, read-out: hGCGR EC50, nM (SEM, n))?
**A.** The EC50 was greater than 9950 nM.

**Q.** What about the EC50 (hGLP-1R; [3]) of the same molecule?
**A.** The EC50 was 3.38 nM.

**Q.** What about the Emax (hGLP-1R; [4]) of the same molecule?
**A.** The Emax was 105%.

**Q.** What about the Emax (hGLP-1R; HEK293, percent of maximal response to GLP-1(7-36)NH2, 37° C., 0.1% bovine casein, arithmetic mean, read-out: hGLP-1R Emax, % ± SEM) of the same molecule?
**A.** Its Emax is 119%.

**Q.** What about the EC50 (hGLP-1R; cAMP, incubated at 37° C., 0.1% bovine casein (no human serum albumin)) of the same molecule?
**A.** Its EC50 is 0.535 nM.

**Q.** What does the source list for `CC[C@H](C)[C@H](NC(=O)[C@H](CC(C)C)NC(=O)[C@](C)(Cc1ccc(O)cc1)NC(=O)[C@H](CCCCNC(=O)COCCOCCNC(=O)COCCOCCNC(=O)CC[C@H](NC(=O)CCCCCCCCCCCCC(=O)O)C(=O)O)NC(=O)[C@@H](NC(=O)[C@H](Cc1ccccc1)NC(=O)[C@H](CCCN)NC(=O)C(C)(C)NC(=O)[C@H](CCC(N)=O)NC(=O)[C@H](C)NC(=O)[C@H](CCC(N)=O)NC(=O)[C@H](CCCN)NC(=O)[C@H](CC(=O)O)NC(=O)[C@H](CC(C)C)NC(=O)[C@](C)(CC(C)C)NC(=O)[C@@H](NC(=O)C(C)(C)NC(=O)[C@H](Cc1ccc(O)cc1)NC(=O)[C@H](CC(=O)O)NC(=O)[C@H](CO)NC(=O)[C@@H](NC(=O)[C@](C)(Cc1ccccc1F)NC(=O)[C@@H](NC(=O)CNC(=O)[C@H](CCC(=O)O)NC(=O)C(C)(C)NC(=O)[C@@H](N)Cc1ccc(O)cc1)[C@@H](C)O)[C@@H](C)O)[C@@H](C)CC)[C@@H](C)CC)C(=O)N[C@@H](CCCCNC(=O)COCCOCCNC(=O)COCCOCCNC(=O)CC[C@H](NC(=O)CCCCCCCCCCCCC(=O)O)C(=O)O)C(=O)NCC(=O)NCC(=O)N1CCC[C@H]1C(=O)N[C@@H](CO)C(=O)N[C@@H](CO)C(=O)NCC(=O)N[C@@H](C)C(=O)N1CCC[C@H]1C(=O)N1CCC[C@H]1C(=O)N1CCC[C@H]1C(=O)N[C@@H](CO)C(N)=O` [Example 401]?
**A.** Emax (hGIPR; HEK293, cAMP, 37° C., 0.1% bovine casein and 1.0% human serum albumin): 83%; Emax (hGIPR; HEK293, cAMP, 37° C., 0.1% bovine casein, arithmetic mean): 98.9%; EC50 (hGIPR; [5]): 0.0112 nM; EC50 (hGCGR; [6]): > 9950 nM; EC50 (hGCGR; cAMP, 37° C., 0.1% bovine casein and 1.0% human serum albumin, geometric mean (SEM, n), read-out: hGCGR EC50, nM (SEM, n)): > 9950 nM; EC50 (hGLP-1R; cAMP, 37° C., 0.1% bovine casein (no human serum albumin)): 0.235 nM

**Q.** For `CCCC[C@H](NC(=O)[C@H](CC(=O)O)NC(=O)[C@H](CO)NC(=O)[C@@H](NC(=O)[C@](C)(Cc1ccccc1F)NC(=O)[C@@H](NC(=O)CNC(=O)[C@H](CCC(=O)O)NC(=O)C(C)(C)NC(=O)[C@@H](N)Cc1ccc(O)cc1)[C@@H](C)O)[C@@H](C)O)C(=O)N[C@@H](CO)C(=O)N[C@H](C(=O)N[C@@](C)(CC(C)C)C(=O)N[C@@H](CC(C)C)C(=O)N[C@@H](CC(=O)O)C(=O)N[C@@H](CCCN)C(=O)N[C@@H](CCCCNC(=O)COCCOCCNC(=O)COCCOCCNC(=O)CCCCCCCCCCCCC(=O)O)C(=O)N[C@@H](C)C(=O)N[C@@H](CCC(N)=O)C(=O)NC(C)(C)C(=O)N[C@@H](CCCCNC(=O)COCCOCCNC(=O)COCCOCCNC(=O)CCCCCCCCCCCCC(=O)O)C(=O)N[C@@H](Cc1ccccc1)C(=O)N[C@H](C(=O)N[C@H](CCC(=O)O)C(=O)N[C@@](C)(Cc1ccc(O)cc1)C(=O)N[C@@H](CC(C)C)C(=O)N[C@H](C(=O)N[C@@H](CCC(=O)O)C(=O)NCC(=O)NCC(=O)N1CCC[C@H]1C(=O)N[C@@H](CO)C(=O)N[C@@H](CO)C(=O)NCC(=O)N[C@@H](C)C(=O)N1CCC[C@H]1C(=O)N1CCC[C@H]1C(=O)N1CCC[C@H]1C(=O)N[C@@H](CO)C(N)=O)[C@@H](C)CC)[C@@H](C)CC)[C@@H](C)CC` [Example 271], which Emax (hGIPR; [1]) is on record?
**A.** The Emax was 97.3%.

**Q.** What about the EC50 (hGIPR; [5]) of the same molecule?
**A.** The EC50 was 0.0186 nM.

**Q.** And the EC50 (hGCGR; [2])?
**A.** The EC50 was greater than 9950 nM.

**Q.** What about the EC50 (hGCGR; [6]) of the same molecule?
**A.** Its EC50 is greater than 9950 nM.

**Q.** What about the EC50 (hGLP-1R; [3]) of the same molecule?
**A.** Its EC50 is 10.2 nM.

**Q.** And the Emax (hGLP-1R; [4])?
**A.** Its Emax is 122%.

**Q.** With `CC[C@H](C)[C@H](NC(=O)[C@H](CC(C)C)NC(=O)[C@](C)(Cc1ccc(O)cc1)NC(=O)[C@H](CCCCNC(=O)COCCOCCNC(=O)COCCOCCNC(=O)[C@@H](N)CCCCNC(=O)CCCCCCCCCCCCC(=O)O)NC(=O)[C@@H](NC(=O)[C@H](Cc1ccccc1)NC(=O)[C@H](CCC(=O)O)NC(=O)C(C)(C)NC(=O)[C@H](CCC(N)=O)NC(=O)[C@H](C)NC(=O)[C@H](CCCCNC(=O)COCCOCCNC(=O)COCCOCCNC(=O)[C@@H](N)CCCCNC(=O)CCCCCCCCCCCCC(=O)O)NC(=O)[C@H](CCCN)NC(=O)[C@H](CC(=O)O)NC(=O)[C@H](CC(C)C)NC(=O)[C@](C)(CC(C)C)NC(=O)[C@@H](NC(=O)[C@H](CO)NC(=O)[C@H](Cc1ccncc1)NC(=O)[C@H](CC(=O)O)NC(=O)[C@H](CO)NC(=O)[C@@H](NC(=O)[C@](C)(Cc1ccccc1F)NC(=O)[C@@H](NC(=O)CNC(=O)[C@H](CCC(=O)O)NC(=O)C(C)(C)NC(=O)[C@@H](N)Cc1ccc(O)cc1)[C@@H](C)O)[C@@H](C)O)[C@@H](C)CC)[C@@H](C)CC)C(=O)N[C@@H](CCC(=O)O)C(=O)NCC(=O)NCC(=O)N1CCC[C@H]1C(=O)N[C@@H](CO)C(=O)N[C@@H](CO)C(=O)NCC(=O)N[C@@H](C)C(=O)N1CCC[C@H]1C(=O)N1CCC[C@H]1C(=O)N1CCC[C@H]1C(=O)N[C@@H](CO)C(N)=O` [Example 160] as the molecule, how does the EC50 (hGIPR; hGIPR EC50, nM (SEM, n), incubated at 37° C.) read?
**A.** Its EC50 is 0.0197 nM.

**Q.** And the EC50 (hGCGR; hGCGR EC50, nM (SEM, n), cAMP, incubated at 37° C., 0.1% bovine casein (no human serum albumin), geometric mean)?
**A.** The EC50 was greater than 9950 nM.

**Q.** And the Emax (hGLP-1R; HEK293, read-out: hGLP-1R Emax, % ± SEM, percent of maximal response to GLP-1(7-36)NH2, 37° C., 0.1% bovine casein, arithmetic mean)?
**A.** Its Emax is 93.6%.
